Test results: patent US8080580B2, “Dioxa-bicyclo[3.2.1]octane-2,3,4-triol derivatives” (Pfizer Inc., priority 2008, dated 2011)
Where “and” joins values, the source holds several entries; their conditions need not be identical. Equal entries are not always repeated.

Key:
human SGLT2 = target: T1, human SGLT2 (Homo sapiens, UniProt P31639); assay: SGLT2 functional assay: inhibition of AMG uptake in CHO-FlpIn cells stably expressing human SGLT2; type: cell-based; settings: individual runs (Run No.), read-out: hSGLT2 IC50
T1 construct: expressed in transfected cells; host or cells: CHO-FlpIn (Invitrogen)
T1 sequence (P31639 1-672): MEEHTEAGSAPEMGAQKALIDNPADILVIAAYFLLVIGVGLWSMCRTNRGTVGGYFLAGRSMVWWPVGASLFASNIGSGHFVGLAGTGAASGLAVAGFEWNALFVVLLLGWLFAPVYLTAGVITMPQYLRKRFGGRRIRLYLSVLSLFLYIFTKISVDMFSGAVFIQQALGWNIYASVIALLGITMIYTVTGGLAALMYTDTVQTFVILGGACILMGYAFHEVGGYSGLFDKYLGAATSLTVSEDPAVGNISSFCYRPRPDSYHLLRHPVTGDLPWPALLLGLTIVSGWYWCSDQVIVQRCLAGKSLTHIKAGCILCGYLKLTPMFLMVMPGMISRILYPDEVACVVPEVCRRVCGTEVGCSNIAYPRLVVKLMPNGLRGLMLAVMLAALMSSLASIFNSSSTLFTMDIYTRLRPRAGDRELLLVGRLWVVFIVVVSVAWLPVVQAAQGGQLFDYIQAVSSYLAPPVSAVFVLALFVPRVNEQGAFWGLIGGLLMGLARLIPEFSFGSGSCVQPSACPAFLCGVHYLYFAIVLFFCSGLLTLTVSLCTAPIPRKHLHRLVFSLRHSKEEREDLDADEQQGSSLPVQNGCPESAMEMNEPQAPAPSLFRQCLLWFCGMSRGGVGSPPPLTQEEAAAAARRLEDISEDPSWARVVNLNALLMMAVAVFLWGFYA
Text: The SGLT2 functional assay was designed to detect the inhibition of methyl-alpha-D glucopyranoside (AMG—a non-metabolizable form of glucose) uptake via the SGLT2 transporter. The SGLT2 transporter recovers glucose from the proximal tubules of the kidney; its inhibition results in sugar wasted in the urine. The positive control compound, Phlorizin, is a known inhibitor of glucose uptake for SGLT2 and was used for comparing the high percent effect of SGLT2 inhibition of the test compounds.
CHO-FlpIn (Invitrogen, Carlsbad, Calif.) cells stably expressing human SGLT2 (pcDNA5/FRT) were plated in Iso-TC 96 well plates (Perkin Elmer, Waltham, Mass.) at a density of 100,000 cells/well in 100 microL of growth media (1:1 F-12/DMEM media (Gibco, Carlsbad, Calif.), 10% FBS (Sigma, St. Louis Mo.), 1× Pen/Strep (Gibco, Carlsbad, Calif.), 600 microg/mL Hygromycin (Invitrogen, Carlsbad, Calif.)). Prior to treating with test compound, confluent cells were serum starved for 2 hours at 37° C. in 1:1 F-12/DMEM media, replacing with fresh F-12/DMEM media after 1 hour. […] Cell plates were then incubated for 3 hours at 37° C. for AMG uptake.

hSGLT1 = target: T2, hSGLT1 (Homo sapiens, UniProt P13866); assay: SGLT1 functional assay: hSGLT1 IC50 (selectivity counter-screen to the SGLT2 AMG uptake assay); type: cell-based; settings: individual runs (Run No.)
T2 sequence (P13866 1-664): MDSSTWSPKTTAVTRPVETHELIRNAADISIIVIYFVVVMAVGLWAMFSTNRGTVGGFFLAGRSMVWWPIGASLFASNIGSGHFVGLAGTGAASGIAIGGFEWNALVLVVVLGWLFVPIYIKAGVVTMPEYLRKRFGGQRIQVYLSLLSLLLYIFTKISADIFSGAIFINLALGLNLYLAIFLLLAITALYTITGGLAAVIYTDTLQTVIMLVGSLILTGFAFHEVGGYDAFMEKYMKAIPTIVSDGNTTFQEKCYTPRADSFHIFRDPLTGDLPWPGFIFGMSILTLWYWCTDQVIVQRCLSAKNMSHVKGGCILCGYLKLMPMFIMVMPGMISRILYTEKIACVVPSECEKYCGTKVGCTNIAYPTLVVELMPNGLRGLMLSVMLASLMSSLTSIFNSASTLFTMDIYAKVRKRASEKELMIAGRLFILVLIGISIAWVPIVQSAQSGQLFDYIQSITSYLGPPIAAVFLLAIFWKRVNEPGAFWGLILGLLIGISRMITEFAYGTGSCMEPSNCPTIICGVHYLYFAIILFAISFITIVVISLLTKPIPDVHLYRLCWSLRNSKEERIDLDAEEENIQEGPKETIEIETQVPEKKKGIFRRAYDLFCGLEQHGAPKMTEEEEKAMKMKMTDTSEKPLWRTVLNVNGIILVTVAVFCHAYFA

Q: With `COc1ccc(Cc2cc([C@]34OC[C@](CO)(O3)[C@@H](O)[C@H](O)[C@H]4O)ccc2C)cc1` [Example 1A, (1S,2S,3S,4R,5S)-1-hydroxymethyl-5-[3-(4-methoxy-benzyl)-4-methyl-phenyl]-6,8-dioxa-bicyclo[3.2.1]octane-2,3,4-triol] as the compound, how does the IC50 (human SGLT2) read?
A: 1.61 nM and 1.55 nM and 1.15 nM and 0.779 nM and 0.715 nM and 0.654 nM

Q: And the IC50 (hSGLT1)?
A: 359 nM and 1080 nM and 454 nM and 327 nM and 562 nM and 262 nM

Q: Which IC50 (human SGLT2) does the source give for `CCOc1ccc(Cc2cc([C@]34OC[C@](CO)(O3)[C@@H](O)[C@H](O)[C@H]4O)ccc2Cl)cc1` [Example 4A, (1S,2S,3S,4R,5S)-5-[4-chloro-3-(4-ethoxy-benzyl)-phenyl]-1-hydroxymethyl-6,8-dioxa-bicyclo[3.2.1]octane-2,3,4-triol] here?
A: 1.27 nM and 0.816 nM and 0.57 nM and 0.922 nM and 1.85 nM and 0.812 nM and 0.7 nM and 0.737 nM and 0.846 nM and 0.768 nM

Q: What about the IC50 (hSGLT1) of the same compound?
A: 1590 nM and 1010 nM and 1750 nM and > 1000 nM and 2090 nM and 1810 nM and 2860 nM and 2480 nM and 2840 nM
